Measured values taken from ChEMBL document CHEMBL1139012, “Synthesis and biological evaluation of purealin and analogues as cytoplasmic dynein heavy chain inhibitors” (J Med Chem, 2006).

Columns and labels:
2008 = experiment: Antiproliferative activity against human 2008 ovarian carcinoma cells by MTS assay; format: functional
MDA-MB-231 = experiment: Antiproliferative activity against human MDA-MB-231 breast carcinoma cells by MTS assay; format: functional
L1210 = experiment: Antiproliferative activity against mouse L1210 leukemia cell line by MTS assay; format: functional
PC-3 = experiment: Antiproliferative activity against human PC3 prostate carcinoma cells by MTS assay; format: functional
HT-29 = experiment: Antiproliferative activity against human HT29 colon carcinoma cells by MTS assay; format: functional
[1] = molecular target: Cytoplasmic dynein 1 heavy chain 1 (Rattus norvegicus, UniProt P38650); experiment: Inhibition of MT-stimulated ATPase activity of rat cytoplasmic dynein heavy chain motor domain
Chain of Cytoplasmic dynein 1 heavy chain 1 (P38650 whole entry, the tested form may be a part): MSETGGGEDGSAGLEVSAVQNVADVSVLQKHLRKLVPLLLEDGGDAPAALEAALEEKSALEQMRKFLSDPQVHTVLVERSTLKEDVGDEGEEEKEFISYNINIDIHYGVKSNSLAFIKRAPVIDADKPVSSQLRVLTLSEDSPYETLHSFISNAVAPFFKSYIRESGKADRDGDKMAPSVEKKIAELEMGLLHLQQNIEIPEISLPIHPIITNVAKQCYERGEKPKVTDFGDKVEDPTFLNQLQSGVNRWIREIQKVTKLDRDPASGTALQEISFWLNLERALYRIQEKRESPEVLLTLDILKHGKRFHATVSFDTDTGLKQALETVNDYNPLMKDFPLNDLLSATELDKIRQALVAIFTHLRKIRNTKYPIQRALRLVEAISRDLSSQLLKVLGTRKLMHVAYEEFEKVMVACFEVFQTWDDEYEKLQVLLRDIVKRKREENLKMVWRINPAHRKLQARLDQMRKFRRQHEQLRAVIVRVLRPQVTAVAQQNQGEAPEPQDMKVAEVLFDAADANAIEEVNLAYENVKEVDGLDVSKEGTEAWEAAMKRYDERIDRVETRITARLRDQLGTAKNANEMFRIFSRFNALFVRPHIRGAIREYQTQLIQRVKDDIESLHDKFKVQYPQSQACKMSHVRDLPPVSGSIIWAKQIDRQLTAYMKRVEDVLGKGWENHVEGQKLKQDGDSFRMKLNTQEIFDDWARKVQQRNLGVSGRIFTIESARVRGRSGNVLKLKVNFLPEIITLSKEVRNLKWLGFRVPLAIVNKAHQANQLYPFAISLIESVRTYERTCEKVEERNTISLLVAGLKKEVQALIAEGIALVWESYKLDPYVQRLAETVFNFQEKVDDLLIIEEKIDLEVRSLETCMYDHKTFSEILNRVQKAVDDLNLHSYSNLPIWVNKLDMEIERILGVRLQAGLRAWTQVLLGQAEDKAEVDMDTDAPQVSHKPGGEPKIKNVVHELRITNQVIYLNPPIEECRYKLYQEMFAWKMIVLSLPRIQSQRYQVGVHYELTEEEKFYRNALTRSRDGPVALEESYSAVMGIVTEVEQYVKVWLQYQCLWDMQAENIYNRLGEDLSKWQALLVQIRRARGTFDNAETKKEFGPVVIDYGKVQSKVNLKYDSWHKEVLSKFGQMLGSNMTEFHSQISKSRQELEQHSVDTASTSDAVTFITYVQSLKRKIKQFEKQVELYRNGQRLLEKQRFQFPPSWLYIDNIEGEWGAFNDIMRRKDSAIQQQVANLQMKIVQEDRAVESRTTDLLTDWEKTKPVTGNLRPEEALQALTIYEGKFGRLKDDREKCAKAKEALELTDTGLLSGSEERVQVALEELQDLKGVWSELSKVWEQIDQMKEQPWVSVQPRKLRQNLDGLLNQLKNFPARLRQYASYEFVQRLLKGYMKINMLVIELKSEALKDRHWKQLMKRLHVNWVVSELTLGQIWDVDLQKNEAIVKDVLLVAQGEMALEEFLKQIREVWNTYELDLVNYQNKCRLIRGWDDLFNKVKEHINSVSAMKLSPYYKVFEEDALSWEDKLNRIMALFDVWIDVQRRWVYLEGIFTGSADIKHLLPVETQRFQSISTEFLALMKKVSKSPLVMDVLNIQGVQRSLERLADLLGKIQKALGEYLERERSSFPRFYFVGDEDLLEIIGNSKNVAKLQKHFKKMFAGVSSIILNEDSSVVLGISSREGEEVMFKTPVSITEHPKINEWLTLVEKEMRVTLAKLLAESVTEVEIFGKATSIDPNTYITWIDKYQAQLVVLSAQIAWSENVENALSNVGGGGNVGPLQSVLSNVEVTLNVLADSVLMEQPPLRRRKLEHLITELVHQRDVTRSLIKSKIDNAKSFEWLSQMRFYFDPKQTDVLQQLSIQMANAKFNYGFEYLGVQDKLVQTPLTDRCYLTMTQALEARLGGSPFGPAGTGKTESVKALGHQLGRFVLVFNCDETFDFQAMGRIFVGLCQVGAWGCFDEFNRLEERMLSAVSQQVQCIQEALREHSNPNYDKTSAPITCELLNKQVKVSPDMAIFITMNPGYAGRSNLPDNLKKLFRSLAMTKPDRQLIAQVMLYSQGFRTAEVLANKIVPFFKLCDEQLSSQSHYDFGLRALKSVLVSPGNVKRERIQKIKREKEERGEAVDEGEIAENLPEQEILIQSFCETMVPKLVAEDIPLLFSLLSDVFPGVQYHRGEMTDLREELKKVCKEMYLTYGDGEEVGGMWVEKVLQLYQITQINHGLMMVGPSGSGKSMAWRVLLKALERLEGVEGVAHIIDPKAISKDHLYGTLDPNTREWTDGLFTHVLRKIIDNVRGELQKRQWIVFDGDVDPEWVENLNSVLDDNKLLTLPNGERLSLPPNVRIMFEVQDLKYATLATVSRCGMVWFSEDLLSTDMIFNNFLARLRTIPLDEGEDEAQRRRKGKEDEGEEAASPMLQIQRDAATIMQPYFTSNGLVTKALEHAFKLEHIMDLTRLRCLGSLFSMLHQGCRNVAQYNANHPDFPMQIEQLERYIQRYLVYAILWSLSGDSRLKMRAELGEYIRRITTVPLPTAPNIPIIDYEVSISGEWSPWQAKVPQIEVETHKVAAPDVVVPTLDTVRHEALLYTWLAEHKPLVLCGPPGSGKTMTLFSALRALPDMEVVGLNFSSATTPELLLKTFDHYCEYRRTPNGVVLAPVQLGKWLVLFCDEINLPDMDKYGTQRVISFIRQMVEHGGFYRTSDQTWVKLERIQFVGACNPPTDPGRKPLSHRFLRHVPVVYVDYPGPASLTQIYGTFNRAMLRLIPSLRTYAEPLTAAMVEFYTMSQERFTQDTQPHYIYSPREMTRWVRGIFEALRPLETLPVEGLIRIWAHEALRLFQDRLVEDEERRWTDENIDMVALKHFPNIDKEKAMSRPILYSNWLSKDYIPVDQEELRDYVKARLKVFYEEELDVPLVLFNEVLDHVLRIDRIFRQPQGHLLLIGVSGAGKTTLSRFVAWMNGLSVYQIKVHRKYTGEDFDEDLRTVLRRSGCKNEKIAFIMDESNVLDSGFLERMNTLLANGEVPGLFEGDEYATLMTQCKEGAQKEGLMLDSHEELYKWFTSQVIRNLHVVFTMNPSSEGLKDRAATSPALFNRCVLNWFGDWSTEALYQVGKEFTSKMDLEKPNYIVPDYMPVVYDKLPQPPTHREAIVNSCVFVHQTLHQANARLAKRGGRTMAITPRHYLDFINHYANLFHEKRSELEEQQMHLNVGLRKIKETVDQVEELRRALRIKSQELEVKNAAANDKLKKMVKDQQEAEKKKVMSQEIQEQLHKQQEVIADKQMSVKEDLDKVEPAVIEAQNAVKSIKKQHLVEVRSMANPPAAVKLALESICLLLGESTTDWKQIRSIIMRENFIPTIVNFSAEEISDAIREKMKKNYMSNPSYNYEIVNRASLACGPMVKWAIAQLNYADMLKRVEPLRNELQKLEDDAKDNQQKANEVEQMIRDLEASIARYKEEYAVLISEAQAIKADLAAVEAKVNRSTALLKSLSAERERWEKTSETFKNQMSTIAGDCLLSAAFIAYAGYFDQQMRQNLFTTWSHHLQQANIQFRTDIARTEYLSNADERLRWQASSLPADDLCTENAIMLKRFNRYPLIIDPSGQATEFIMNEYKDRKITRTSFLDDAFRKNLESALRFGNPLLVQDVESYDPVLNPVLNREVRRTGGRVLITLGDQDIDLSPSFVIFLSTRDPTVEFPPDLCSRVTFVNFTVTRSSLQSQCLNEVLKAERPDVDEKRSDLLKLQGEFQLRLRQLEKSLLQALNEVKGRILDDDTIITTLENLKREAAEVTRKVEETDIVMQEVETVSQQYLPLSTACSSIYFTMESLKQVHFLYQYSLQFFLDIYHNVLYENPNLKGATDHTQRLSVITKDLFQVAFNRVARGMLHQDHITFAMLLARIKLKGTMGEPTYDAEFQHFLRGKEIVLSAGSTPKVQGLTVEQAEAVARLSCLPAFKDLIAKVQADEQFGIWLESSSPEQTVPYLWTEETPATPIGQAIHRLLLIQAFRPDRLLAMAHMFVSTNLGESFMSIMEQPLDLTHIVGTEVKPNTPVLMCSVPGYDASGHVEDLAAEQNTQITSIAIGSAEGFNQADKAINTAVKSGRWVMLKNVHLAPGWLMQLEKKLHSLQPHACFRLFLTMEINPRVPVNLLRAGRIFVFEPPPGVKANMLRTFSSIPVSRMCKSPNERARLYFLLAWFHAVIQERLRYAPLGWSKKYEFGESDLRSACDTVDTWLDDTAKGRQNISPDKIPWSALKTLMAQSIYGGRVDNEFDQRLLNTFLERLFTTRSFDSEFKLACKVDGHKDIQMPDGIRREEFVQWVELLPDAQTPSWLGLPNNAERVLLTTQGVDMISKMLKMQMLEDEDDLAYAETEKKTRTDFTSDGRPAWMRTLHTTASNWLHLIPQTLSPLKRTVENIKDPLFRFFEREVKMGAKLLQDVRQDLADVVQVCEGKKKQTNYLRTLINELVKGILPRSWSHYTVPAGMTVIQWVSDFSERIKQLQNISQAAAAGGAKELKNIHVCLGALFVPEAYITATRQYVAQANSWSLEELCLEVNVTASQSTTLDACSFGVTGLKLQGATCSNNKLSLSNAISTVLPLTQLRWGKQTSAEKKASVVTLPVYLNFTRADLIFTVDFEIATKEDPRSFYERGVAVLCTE

With `COc1ccc(CCNC(=O)/C(Cc2ccc(OCCCN)c(Br)c2)=N\O)cc1` the GI50 2008 was 31 µM, the GI50 (MDA-MB-231) was 48 µM and the GI50 (L1210) was 9.9 µM. It also gave a GI50 (PC-3) of 39 µM and a GI50 (HT-29) of 30 µM.

Work on `COc1ccc(CCNC(=O)/C(Cc2cc(Br)cc(Br)c2OCCCN)=N\O)cc1` yielded a GI50 2008 of 25 µM, a GI50 (MDA-MB-231) of 8.8 µM and a GI50 (L1210) of 6.2 µM. It also gave a GI50 (PC-3) of 35 µM and a GI50 (HT-29) of 4.9 µM.

`NCCCOc1c(Cl)cc(Cl)cc1C/C(=N/O)C(=O)NCCc1c[nH]c2ccccc12` was tested, and the GI50 2008 was 5.7 µM, the GI50 (MDA-MB-231) was 5.3 µM and the IC50 [1] was over 50 µM. The GI50 (L1210) was 5.8 µM, the GI50 (PC-3) was 5 µM and the GI50 (HT-29) was 6 µM.

`NCCCOc1c(Cl)cc(Cl)cc1C/C(=N/O)C(=O)NCCc1ccccc1` gave a GI50 2008 of 8.8 µM, a GI50 (MDA-MB-231) of 7.6 µM and a GI50 (L1210) of 7.5 µM. It also gave a GI50 (PC-3) of 31 µM and a GI50 (HT-29) of 5.6 µM.

Work on `NCCCOc1ccc(C/C(=N/O)C(=O)NCCc2ccc(Cl)cc2)cc1Br` yielded a GI50 2008 of 27 µM, a GI50 (MDA-MB-231) of 26 µM and an IC50 [1] of over 50 µM. It also gave a GI50 (L1210) of 6.5 µM, a GI50 (PC-3) of 33 µM and a GI50 (HT-29) of 27 µM.

`NCCCOc1c(Br)cc(Br)cc1C/C(=N/O)C(=O)NCCc1ccc(Cl)cc1` showed a GI50 2008 of 5.6 µM, a GI50 (MDA-MB-231) of 5.6 µM and an IC50 [1] of over 50 µM. The GI50 (L1210) was 6.3 µM, the GI50 (PC-3) was 15 µM and the GI50 (HT-29) was 5.3 µM.

`COc1ccc(CCNC(=O)/C(Cc2cc(Cl)cc(Cl)c2OCCCN)=N\O)cc1` showed a GI50 2008 of 29 µM, a GI50 (MDA-MB-231) of 24 µM and a GI50 (L1210) of 6.9 µM. The GI50 (PC-3) was 32 µM and the GI50 (HT-29) was 6.2 µM.

`NCCCOc1ccc(C/C(=N/O)C(=O)NCCc2ccccc2)cc1Br` was tested, and the GI50 2008 was 30 µM, the GI50 (MDA-MB-231) was over 50 µM and the GI50 (L1210) was 6.2 µM. The GI50 (PC-3) was 31 µM and the GI50 (HT-29) was 27 µM.

With `NCCCOc1c(Br)cc(C/C(=N/O)C(=O)NCCc2c[nH]c3ccccc23)cc1Br` the GI50 2008 was 27 µM, the GI50 (MDA-MB-231) was 24 µM and the GI50 (L1210) was 5.8 µM. It also gave a GI50 (PC-3) of 26 µM and a GI50 (HT-29) of 26 µM.

`NCCCOc1c(Cl)cc(Cl)cc1C/C(=N/O)C(=O)NCCc1ccc(Cl)cc1` was tested, and the GI50 2008 was 5.4 µM, the GI50 (MDA-MB-231) was 5.2 µM and the GI50 (L1210) was 5.9 µM. The GI50 (PC-3) was 7.8 µM and the GI50 (HT-29) was 5.5 µM.

`NCCCOc1c(Br)cc(Br)cc1C/C(=N/O)C(=O)NCCc1c[nH]c2ccccc12` gave a GI50 2008 of 7.5 µM, a GI50 (MDA-MB-231) of 6.7 µM and an IC50 [1] of over 50 µM. The GI50 (L1210) was 5.4 µM, the GI50 (PC-3) was 31 µM and the GI50 (HT-29) was 6 µM.

In the case of `NCCCOc1c(Br)cc(C/C(=N/O)C(=O)NCCc2ccccc2)cc1Br`, the GI50 2008 is reported as 29 µM, the GI50 (MDA-MB-231) is reported as 27 µM and the GI50 (L1210) is reported as 6.4 µM. The GI50 (PC-3) was 31 µM and the GI50 (HT-29) was 31 µM.

`NCCCOc1c(Br)cc(Br)cc1C/C(=N/O)C(=O)NCCc1ccccc1` was tested, and the GI50 2008 was 19 µM, the GI50 (MDA-MB-231) was 5.7 µM and the GI50 (L1210) was 6.3 µM. It also gave a GI50 (PC-3) of 19 µM and a GI50 (HT-29) of 5.3 µM.

In the case of `NCCCOc1ccc(C/C(=N/O)C(=O)NCCc2c[nH]c3ccccc23)cc1Br`, the GI50 2008 is reported as 26 µM, the GI50 (MDA-MB-231) is reported as 25 µM and the IC50 [1] is reported as over 50 µM. It also gave a GI50 (L1210) of 7.6 µM, a GI50 (PC-3) of 32 µM and a GI50 (HT-29) of 30 µM.

For `COc1ccc(CCNC(=O)/C(Cc2cc(Br)c(OCCCN)c(Br)c2)=N\O)cc1`, the GI50 2008 was 24 µM, the GI50 (MDA-MB-231) was 17 µM and the GI50 (L1210) was 2.8 µM. The GI50 (PC-3) was 21 µM and the GI50 (HT-29) was 20 µM.

With `NCCCOc1c(Br)cc(C/C(=N/O)C(=O)NCCc2ccc(Cl)cc2)cc1Br` the GI50 2008 was 29 µM, the GI50 (MDA-MB-231) was 27 µM and the GI50 (L1210) was 7.8 µM. For the same molecule, the GI50 (PC-3) was 30 µM and the GI50 (HT-29) was 31 µM.

Molecule `C=C/C=C\[C@H](C)[C@H](OC(N)=O)[C@@H](C)[C@H](O)[C@@H](C)C/C(C)=C\[C@H](C)[C@@H](O)[C@@H](C)/C=C\[C@@H](O)C[C@@H]1OC(=O)[C@H](C)[C@@H](O)[C@H]1C` [DISERMOLIDE] has a GI50 2008 of 0.0027 µM, a GI50 (MDA-MB-231) of 0.04 µM and a GI50 (L1210) of 0.0092 µM. For the same molecule, the GI50 (PC-3) was 0.052 µM and the GI50 (HT-29) was 0.028 µM.

For `CCCCCCCCCCCCCC(=O)NCCCOc1c(Br)cc(C/C(=N/O)C(=O)NCCc2c[nH]c(N)n2)cc1Br` [LIPOPUREALIN A], the GI50 2008 was 28 µM, the GI50 (MDA-MB-231) was 28 µM and the IC50 [1] was over 50 µM. The GI50 (L1210) was 9 µM, the GI50 (PC-3) was 30 µM and the GI50 (HT-29) was 29 µM.

For `CC(C)CCCCCCCCCCCC(=O)NCCCOc1c(Br)cc(C/C(=N/O)C(=O)NCCc2c[nH]c(N)n2)cc1Br` [LIPOPUREALIN B], the GI50 2008 was 29 µM, the GI50 (MDA-MB-231) was 28 µM and the GI50 (L1210) was 12 µM. For the same molecule, the GI50 (PC-3) was 25 µM and the GI50 (HT-29) was 30 µM.

`CCCCCCCCCCCCCCCC(=O)NCCCOc1c(Br)cc(C/C(=N/O)C(=O)NCCc2c[nH]c(N)n2)cc1Br` [LIPOPUREALIN C] showed a GI50 2008 of 5.7 µM, a GI50 (MDA-MB-231) of 7 µM and a GI50 (L1210) of 9.7 µM. It also gave a GI50 (PC-3) of 32 µM and a GI50 (HT-29) of 20 µM.

With `NCCCOc1c(Br)cc(C/C(=N/O)C(=O)NCCc2c[nH]c(N)n2)cc1Br` [PUREALIDIN A] the GI50 2008 was over 50 µM, the GI50 (MDA-MB-231) was over 50 µM and the IC50 [1] was 42 µM. It also gave a GI50 (L1210) of 4.7 µM, a GI50 (PC-3) of over 50 µM and a GI50 (HT-29) of over 50 µM.

For `COC1=C(Br)[C@@H](O)[C@]2(C=C1Br)CC(C(=O)NCCCOc1c(Br)cc(C/C(=N/O)C(=O)NCCc3c[nH]c(N)n3)cc1Br)=NO2` [PUREALIN], the GI50 2008 was over 50 µM, the GI50 (MDA-MB-231) was over 50 µM and the IC50 [1] was 35 µM. For the same molecule, the GI50 (L1210) was 3.2 µM, the GI50 (PC-3) was over 50 µM and the GI50 (HT-29) was over 50 µM.
